One series deals with T1, ovine COX-1 (Ovis aries, UniProt P05979).
T1 construct: purchased Cayman Chemicals, Ann Arbor, MI, USA
T1 sequence (P05979 25-600): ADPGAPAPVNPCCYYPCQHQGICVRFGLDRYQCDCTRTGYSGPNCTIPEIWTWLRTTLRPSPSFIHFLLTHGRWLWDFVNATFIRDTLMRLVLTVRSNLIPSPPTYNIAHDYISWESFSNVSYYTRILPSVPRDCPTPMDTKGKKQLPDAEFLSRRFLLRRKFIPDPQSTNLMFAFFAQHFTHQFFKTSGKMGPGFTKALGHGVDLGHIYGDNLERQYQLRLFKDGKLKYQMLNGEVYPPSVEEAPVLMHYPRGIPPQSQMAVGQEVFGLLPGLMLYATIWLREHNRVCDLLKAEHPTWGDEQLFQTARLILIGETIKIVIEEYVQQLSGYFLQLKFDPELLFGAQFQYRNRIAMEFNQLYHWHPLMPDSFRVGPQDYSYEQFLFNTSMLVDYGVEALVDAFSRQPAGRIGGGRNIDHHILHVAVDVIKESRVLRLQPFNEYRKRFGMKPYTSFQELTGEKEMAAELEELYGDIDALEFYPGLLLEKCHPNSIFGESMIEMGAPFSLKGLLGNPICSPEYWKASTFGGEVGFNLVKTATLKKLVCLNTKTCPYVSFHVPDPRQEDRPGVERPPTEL
The series can be described thus: In vitro COX-1 colorimetric enzyme assay (Cayman kit, TMPD at 590 nm). It counts as biochemical. Here is the method: (§1) The assay procedure was followed as per the manufacturer’s protocol with slight modifications. The screening kits consolidate ovine COX-1 as well as human recombinant COX-2 compounds to screen isozyme-specific inhibitors. The test investigates the peroxidase activity by projecting the presence of oxidized TMPD (N, N, N′, N′- tetramethyl-p-phenylenediamine) at 590 nm. The COX-2 selectivity was measured as a ratio of IC50 for COX-1 divided by COX-2 [15].

In the next series the target is T2, human recombinant COX-2 (Homo sapiens, UniProt P35354).
T2 construct: purchased Cayman Chemicals, Ann Arbor, MI, USA
T2 sequence (P35354 18-604): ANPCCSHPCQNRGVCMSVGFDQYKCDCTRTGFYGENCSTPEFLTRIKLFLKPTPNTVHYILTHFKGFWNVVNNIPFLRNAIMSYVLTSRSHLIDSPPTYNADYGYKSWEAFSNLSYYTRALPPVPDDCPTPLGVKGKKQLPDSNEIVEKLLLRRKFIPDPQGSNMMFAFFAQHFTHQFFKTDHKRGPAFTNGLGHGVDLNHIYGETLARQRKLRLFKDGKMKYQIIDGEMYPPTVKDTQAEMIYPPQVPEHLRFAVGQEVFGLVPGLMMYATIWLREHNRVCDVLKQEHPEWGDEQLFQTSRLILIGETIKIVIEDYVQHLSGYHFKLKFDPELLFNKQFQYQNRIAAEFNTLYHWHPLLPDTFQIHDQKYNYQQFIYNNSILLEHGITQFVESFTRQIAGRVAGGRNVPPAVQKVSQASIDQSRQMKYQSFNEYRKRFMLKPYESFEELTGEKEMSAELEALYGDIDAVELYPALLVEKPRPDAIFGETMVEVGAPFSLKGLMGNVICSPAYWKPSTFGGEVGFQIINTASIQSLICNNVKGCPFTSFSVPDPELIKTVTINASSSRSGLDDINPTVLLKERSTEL
The series can be described thus: In vitro COX-2 colorimetric enzyme assay (Cayman kit, TMPD at 590 nm). It counts as biochemical. The conditions noted are these: for Selectivity (ratio of IC50 for COX-1 to COX-2): IC50 COX-1 divided by IC50 COX-2; for IC50: human recombinant COX-2; for COX-2 selectivity, in words: selectivity ratio compared with indomethacin / other derivatives; for COX-2 inhibition, in words: compared with indomethacin / other derivatives. Here is the method:
as §1

Series [1] has as its system carrageenan-induced paw oedema. The series can be described thus: Carrageenan-induced rat paw oedema. The conditions noted are these: 2.57 mg/kg oral, 1 h before carrageenan; paw volume after 5 h. The series is classed as in vivo, Wistar rats. Here is the method: All the procedures performed followed the Committee for Control and Supervision of Experiments on Animals (CPCSEA), the Ministry of Social Justice and Empowerment, the Government of India. The in vivo study was performed using Wistar rats (250-300 gm body weight) obtained from the Torrent Research Center, […]. Animals were divided into five groups containing six rats per group and housed under controlled conditions. The temperature and relative humidity of the animal house were kept at 23 ± 2 °C and 55 ± 5%, respectively. Animals were kept under a photo schedule of 12 h light and 12 h dark cycle and given access to food and purified water ad libitum. […] A freshly prepared carrageenan solution (1%w/v, 0.1 mL) was injected into the plantar side of each rat's right hind paw. […] The paw volume was measured using a plethysmometer using the mercury displacement method after 5 h of carrageenan injection.
On the technique in general: In the carrageenan paw model, swelling and tenderness develop within hours.

Another series relates to gastric mucosa. The series can be described thus: Effect on the gastric mucosa (ulcerogenic effect). The conditions noted are these: 2.57 mg/kg oral, six hours after administration, rats. The series is classed as in vivo, Wistar rats. Here is the method: GI side effects were assessed six hours after an oral administration in each group. Animals were euthanized, and stomachs were expelled, opened along the more prominent bend and washed with saline to remove gastric contents. Each stomach was analysed by another researcher, blinded to the treatment groups. The stomach was visually examined for the presence of any lesions, hyperaemia (red tinge) or haemorrhagic spots for evaluation of the presence of ulceration.

Where “and” joins values, the source holds several entries; their conditions need not be identical. Identical values can stand only once. Entries after “also recorded” stand apart in the source; their conditions may differ.

With `COc1ccc2c(c1)c(CC(=O)Nc1ccccc1)c(C)n2C(=O)c1ccc(Cl)cc1` [Compound 3a, 2-(1(4-chlorobenzoyl),5-methoxy-2-methyl-1H-indol-3-yl)-N-phenylacetamide], the IC50 (usually the concentration at which inhibition is half-maximal) on ovine COX-1 came out at 6.04 ± 0.14 µM; at human recombinant COX-2, 2.97 ± 0.11 µM. The “Selectivity (ratio of IC50 for COX-1 to COX-2)” value at human recombinant COX-2 was determined as 2.04.
Molecule `COc1ccc2c(c1)c(CC(=O)Nc1ccccc1Cl)c(C)n2C(=O)c1ccc(Cl)cc1` [Compound 3b, 2-(1-(4-chlorobenzoyl),5-methoxy-2-methyl-1H-indol-3-yl)-N-(2-chlorophenyl)acetamide] displayed an IC50 on ovine COX-1 of 4.61 ± 0.31 µM. Moreover, at human recombinant COX-2, the “Selectivity (ratio of IC50 for COX-1 to COX-2)” value worked out at 1.41 and the IC50 came to 3.28 ± 0.16 µM.
`COc1ccc2c(c1)c(CC(=O)Nc1ccc(F)c(Cl)c1)c(C)n2C(=O)c1ccc(Cl)cc1` [Compound 3c, N-(3-chloro-4-fluorophenyl)-2-(1-(4-chlorobenzoyl)-5-methoxy-2-methyl-1H-indol-3-yl)acetamide] had an IC50 against ovine COX-1 of 1.06 ± 0.1 µM. Further, the “Anti-inflammatory activity (inhibition of paw oedema), in words” value in series [1] is “comparable anti-inflammatory activity with the standard”. Further, on human recombinant COX-2, the “Selectivity (ratio of IC50 for COX-1 to COX-2)” value is reported as 0.76; the IC50 was 1.39 ± 0.32 µM; the “COX-2 selectivity, in words” value is listed as “less than indomethacin”.
`COc1ccc2c(c1)c(CC(=O)Nc1ccc(F)cc1)c(C)n2C(=O)c1ccc(Cl)cc1` [Compound 3d, 2-(1-(4-chlorobenzoyl)-5-methoxy-2-methyl-1H-indol-3-yl)-N-(4-fluorophenyl)acetamide] came in with a half-inhibitory concentration (IC50) on ovine COX-1 of 5 ± 0.47 µM.
For `COc1ccc2c(c1)c(CC(=O)Nc1ccc([N+](=O)[O-])cc1)c(C)n2C(=O)c1ccc(Cl)cc1` [Compound 3e, 2-(1-(4-chlorobenzoyl)-5-methoxy-2-methyl-1H-indol-3-yl)-N-(4-nitrophenyl)acetamide], the “Ulcerogenic effect (visual examination of stomach), in words” value with gastric mucosa is “devoid of GI side effects such as ulceration”. Besides, the IC50 at ovine COX-1 came to 1.15 ± 0.3 µM. Further, the “Anti-inflammatory activity (inhibition of paw oedema), in words” value in series [1] is listed as “comparable anti-inflammatory activity with the standard”. Moreover, at human recombinant COX-2, the “Selectivity (ratio of IC50 for COX-1 to COX-2)” value was 3.32; the “COX-2 inhibition, in words” value is on record as “comparable COX-2 inhibition potential to indomethacin; also recorded: particularly significant activity against the COX-2 enzyme”; the IC50 was 0.344 µM and 0.34 µM; the “COX-2 selectivity, in words” value is “highest selectivity ratio; also recorded: excellent selectivity ratio as compared with the standard”.
Take `COc1ccc2c(c1)c(CC(=O)Nc1c(Cl)cccc1Cl)c(C)n2C(=O)c1ccc(Cl)cc1` [Compound 3g, 2-(1-(4-chlorobenzoyl)-5-methoxy-2-methyl-1H-indol-3-yl)-N-(2,6-dichlorophenyl)acetamide]: the IC50 at ovine COX-1 worked out at 4.14 ± 0.25 µM. At human recombinant COX-2, the “Selectivity (ratio of IC50 for COX-1 to COX-2)” value is on record as 1.42 and the IC50 is 2.91 ± 0.38 µM.
Turning to `COc1ccc2c(c1)c(CC(=O)NCc1ccccc1)c(C)n2C(=O)c1ccc(Cl)cc1` [Compound 3h, N-benzyl-2-(1-(4-chlorobenzoyl)-5-methoxy-2-methyl-1H-indol-3-yl)acetamide], half-maximal inhibition at ovine COX-1 (IC50) was put at 4.99 ± 0.11 µM. For the same molecule, at human recombinant COX-2, the “Selectivity (ratio of IC50 for COX-1 to COX-2)” value was 1.06; the “COX-2 inhibition, in words” value is “low inhibitory action against COX-2”; the 50% inhibitory concentration (IC50) was determined as 4.73 ± 0.15 µM.
With `COc1ccc2c(c1)c(CC(=O)Nc1cccc(C)c1)c(C)n2C(=O)c1ccc(Cl)cc1` [Compound 3i, 2-(1-(4-chlorobenzoyl)-5-methoxy-2-methyl-1H-indol-3-yl)-N-m-tolylacetamide], it took 4.71 ± 0.22 µM to reach half-maximal inhibition against ovine COX-1 (IC50). Further, on human recombinant COX-2, the “Selectivity (ratio of IC50 for COX-1 to COX-2)” value is 1.12; the “COX-2 inhibition, in words” value is given as “low inhibitory action against COX-2”; the IC50 stood at 4.22 ± 0.23 µM.
For `COc1ccc2c(c1)c(CC(=O)O)c(C)n2C(=O)c1ccc(Cl)cc1` [Indomethacin, 2-(1-(4-chlorobenzoyl)-5-methoxy-2-methyl-1-H-indol-3-yl)acetic acid], the “Ulcerogenic effect (visual examination of stomach), in words” value in the series with gastric mucosa is “small lesions and red colouration; also recorded: small lesions and ulcers”. For the same molecule, the “Anti-inflammatory activity (inhibition of paw oedema), in words” value in series [1] is given as “significant inhibition of oedema formation”.

The record behind these values is PMC8876616, “Drug Design, Synthesis and Biological Evaluation of Heterocyclic Molecules as Anti-Inflammatory Agents” (Molecules, 2022).
